Measured values as given in patent US20070042975A1, “Novel indolopyrrolocarbazole derivative with antitumor activity” (priority 2003, published 2007).

Legend:
[1] = tested on: HCT-116 (Human Colorectal Cancer Cells); test: Cell-growth suppressive effect against HCT-116 cells (WST-8 method); format: cell-based; conditions: 72 h, 3 days incubation with medicament, read-out: 50% Growth Inhibiting Activity (IC50, μM) HCT-116 Cells
Method: (§1) Method for Judging the Pharmaceutical Effect using Cells
(§2) Fetal calf serum (FCS) was purchased from Molgate and a DMEM medium was purchased from Asahi Techno Glass.
(§3) MKN-45, human stomach cancer cell, was purchased from the Immune Biology Laboratory. HCT 116, human colorectal cancer cell, was purchased from the American Type Culture Collection (ATCC).
(§4) Cells were suspended in a DMEM medium to which 10% of FCS were added, and a cell suspension was dispensed to a 96-well plastic plate to an extent of 1000 cells/50 microliters per well. Incubation was carried out at 37° C. for one night in 5% CO2-95% air. Each medicament was subjected to a gradient dilution using dimethyl sulfoxide or an appropriate solvent and each 50 microliters were dispensed to a microplate to which cells were sowed previously. Incubation was carried out for 3 days more at 37° C. in 5% CO2-95% air.

[2] = tested on: MKN-45 (Human Stomach Cancer Cells); test: Cell-growth suppressive effect against MKN-45 cells (WST-8 method); format: cell-based; conditions: 72 h, 3 days incubation with medicament, read-out: 50% Growth Inhibiting Activity (IC50, μM) MKN-45 Cells
Method: as §1, §2, §3, §4

IC50 [1] [µM] | IC50 [2] [µM] | SMILES
0.0037 | – | O=C1c2c(c3c4ccc(O)cc4n([C@@H]4O[C@H](CO)[C@@H](O)[C@H](O)[C@H]4O)c3c3[nH]c4cc(O)ccc4c23)C(=O)N1OCc1cccc(CO)n1 [Example 19, 6-N-(6-hydroxymethyl-2-pyridylmethoxy)-12,13-dihydro-2,10-dihydroxy-12-β-D-glucopyranosyl-5H-indolo[2,3-a]pyrrolo[3,4-c]carbazole-5,7(6H)-dione]
0.0012 | – | O=C1c2c(c3c4ccc(O)cc4n([C@@H]4O[C@H](CO)[C@@H](O)[C@H](O)[C@H]4O)c3c3[nH]c4cc(O)ccc4c23)C(=O)N1NCc1cc[nH]n1 [Example 14, 6-N-(3-1H-pyrazolylmethyl)amino-12,13-dihydro-2,10-dihydroxy-12-β-D-glucopyranosyl-5H-indolo[2,3-a]pyrrolo[3,4-c]carbazole-5,7(6H)-dione]
– | 0.0012 | O=C1c2c(c3c4ccc(O)cc4n([C@@H]4O[C@H](CO)[C@@H](O)[C@H](O)[C@H]4O)c3c3[nH]c4cc(O)ccc4c23)C(=O)N1NCc1cc(CO)sc1CO [Example 4, 6-N-(2,5-dihydroxymethyl-3-thienylmethyl)amino-12,13-dihydro-2,10-dihydroxy-12-β-D-glucopyranosyl-5H-indolo[2,3-a]pyrrolo[3,4-c]carbazole-5,7(6H)-dione]
– | 0.002 | O=C1c2c(c3c4ccc(O)cc4n([C@@H]4O[C@H](CO)[C@@H](O)[C@H](O)[C@H]4O)c3c3[nH]c4cc(O)ccc4c23)C(=O)N1NCc1ccc[nH]1 [Example 12, 6-N-(2-1H-pyrrolylmethyl)amino-12,13-dihydro-2,10-dihydroxy-12-β-D-glucopyranosyl-5H-indolo[2,3-a]pyrrolo[3,4-c]carbazole-5,7(6H)-dione]
– | 0.0014 | O=C1c2c(c3c4ccc(O)cc4n([C@@H]4O[C@H](CO)[C@@H](O)[C@H](O)[C@H]4O)c3c3[nH]c4cc(O)ccc4c23)C(=O)N1NCc1ccnc2ccccc12 [Example 6, 6-N-(4-quinolinylmethylamino)-12,13-dihydro-2,10-dihydroxy-12-β-D-glucopyranosyl-5H-indolo[2,3-a]pyrrolo[3,4-c]carbazole-5,7(6H)-dione]
0.005 | – | O=C1c2c(c3c4ccc(O)cc4n([C@@H]4O[C@H](CO)[C@@H](O)[C@H](O)[C@H]4O)c3c3[nH]c4cc(O)ccc4c23)C(=O)N1CCc1ccncc1 [Example 39, 6-N-(2-(4-pyridyl)ethyl)-12,13-dihydro-2,10-dihydroxy-12-β-D-glucopyranosyl-5H-indolo-[2,3-a]pyrrolo[3,4-c]carbazole-5,7(6H)-dione]

More lines, now with the values behind:

SMILES | IC50 [1] [µM] | IC50 [2] [µM]
O=C1c2c(c3c4ccc(O)cc4n([C@@H]4O[C@H](CO)[C@@H](O)[C@H](O)[C@H]4O)c3c3[nH]c4cc(O)ccc4c23)C(=O)N1OCc1ccncc1CO [Example 30, 6-N-(3-hydroxymethyl-4-pyridylmethoxy)-12,13-dihydro-2,10-dihydroxy-12-β-D-glucopyranosyl-5H-indolo[2,3-a]pyrrolo[3,4-c]carbazole-5,7(6H)-dione] | 0.00076 | –
O=C1c2c(c3c4ccc(O)cc4n([C@@H]4O[C@H](CO)[C@@H](O)[C@H](O)[C@H]4O)c3c3[nH]c4cc(O)ccc4c23)C(=O)N1OCc1ccncc1 [Example 18, 6-N-(4-pyridylmethoxy)-12,13-dihydro-2,10-dihydroxy-12-β-D-glucopyranosyl-5H-indolo-[2,3-a]pyrrolo[3,4-c]carbazole-5,7(6H)-dione] | 0.0023 | –
COC(=O)c1cccc(CNN2C(=O)c3c(c4c5ccc(O)cc5n([C@@H]5O[C@H](CO)[C@@H](O)[C@H](O)[C@H]5O)c4c4[nH]c5cc(O)ccc5c34)C2=O)n1 [Example 16, 6-N-(2-methoxycarbonyl-6-pyridylmethyl)amino-12,13-dihydro-2,10-dihydroxy-12-β-D-glucopyranosyl-5H-indolo[2,3-a]pyrrolo[3,4-c]carbazole-5,7(6H)-dione] | 0.0049 | –
O=C1c2c(c3c4ccc(O)cc4n([C@@H]4O[C@H](CO)[C@@H](O)[C@H](O)[C@H]4O)c3c3[nH]c4cc(O)ccc4c23)C(=O)N1NCc1c[nH]cn1 [Example 15, 6-N-(4-1H-imidazolylmethyl)amino-12,13-dihydro-2,10-dihydroxy-12-β-D-glucopyranosyl-5H-indolo[2,3-a]pyrrolo[3,4-c]carbazole-5,7(6H)-dione] | 0.0016 | –
O=C1c2c(c3c4ccc(O)cc4n([C@@H]4O[C@H](CO)[C@@H](O)[C@H](O)[C@H]4O)c3c3[nH]c4cc(O)ccc4c23)C(=O)N1NCc1cnccn1 [Example 5, 6-N-pyrazinylmethylamino-12,13-dihydro-2,10-dihydroxy-12-β-D-glucopyranosyl-5H-indolo-[2,3-a]pyrrolo[3,4-c]carbazole-5,7(6H)-dione] | – | 0.0028
O=C1c2c(c3c4ccc(O)cc4n([C@@H]4O[C@H](CO)[C@@H](O)[C@H](O)[C@H]4O)c3c3[nH]c4cc(O)ccc4c23)C(=O)N1NCc1cc([N+](=O)[O-])c[nH]1 [Example 10, 6-N-(4-nitro-2-1H-pyrrolylmethyl)amino-12,13-dihydro-2,10-dihydroxy-12-β-D-glucopyranosyl-5H-indolo[2,3-a]pyrrolo[3,4-c]carbazole-5,7(6H)-dione] | – | 0.004
